# From ChEMBL document CHEMBL1671624, “Efficacy of quinoxaline-2-carboxylate 1,4-di-N-oxide derivatives in experimental tuberculosis” (Antimicrob Agents Chemother, 2008)
# Assays:
# Format in all cases: functional
# [1] = test system: Mycobacterium tuberculosis; assay: Antibacterial activity against thiacetazone-resistant Mycobacterium tuberculosis by microplate Alamar Blue assay
# [2] = test system: Mycobacterium tuberculosis; assay: Antibacterial activity against ciprofloxacin-resistant Mycobacterium tuberculosis by microplate Alamar Blue assay
# [3] = test system: Mycobacterium tuberculosis; assay: Antibacterial activity against ethambutol-resistant Mycobacterium tuberculosis by microplate Alamar Blue assay
# [4] = test system: Mycobacterium tuberculosis; assay: Antibacterial activity against ethionamide-resistant Mycobacterium tuberculosis by microplate Alamar Blue assay
# [5] = test system: Mycobacterium tuberculosis; assay: Antibacterial activity against isoniazid-resistant Mycobacterium tuberculosis by microplate Alamar Blue assay
# [6] = test system: Mycobacterium tuberculosis; assay: Antibacterial activity against kanamycin-resistant Mycobacterium tuberculosis by microplate Alamar Blue assay
# [7] = test system: Mycobacterium tuberculosis; assay: Antibacterial activity against rifampin-resistant Mycobacterium tuberculosis by microplate Alamar Blue assay
SMILES,MIC [1] [µg/mL],MIC [2] [µg/mL],MIC [3] [µg/mL],MIC [4] [µg/mL],MIC [5] [µg/mL],MIC [6] [µg/mL],MIC [7] [µg/mL]
CCOC(=O)c1c(C)[n+]([O-])c2cc(C)c(C)cc2[n+]1[O-],≤ 3.13,12.5,≤ 3.13,6.25,6.25,≤ 3.13,≤ 3.13
CCOC(=O)c1c(C)[n+]([O-])c2ccc(C)cc2[n+]1[O-],0.39,6.25,–,6.25,–,–,3.13
CCOC(=O)c1c(C)[n+]([O-])c2ccccc2[n+]1[O-],–,3.13,–,–,1.56,1.56,1.56
CCOC(=O)c1c(C)[n+]([O-])c2cc(Cl)c(Cl)cc2[n+]1[O-],–,0.2,0.2,–,0.39,≤ 0.1,0.2
COCCOC(=O)c1c(C)[n+]([O-])c2cc(Cl)c(Cl)cc2[n+]1[O-],0.39,0.39,–,0.78,≤ 0.2,–,≤ 0.2
Cc1ccc2c(c1)[n+]([O-])c(C(=O)OCc1ccccc1)c(C)[n+]2[O-],0.39,0.39,–,1.56,–,–,0.39
Cc1c(C(=O)OCc2ccccc2)[n+]([O-])c2ccccc2[n+]1[O-],0.2,0.1,–,0.4,0.2,–,0.2
Cc1c(C(=O)OCc2ccccc2)[n+]([O-])c2cc(Cl)c(Cl)cc2[n+]1[O-],0.78,0.39,0.78,0.78,1.56,0.39,0.39
COC(=O)c1c(C)[n+]([O-])c2ccc(C)cc2[n+]1[O-],1.56,6.25,25,3.13,6.25,25,3.13
COC(=O)c1c(C)[n+]([O-])c2cc(C)c(C)cc2[n+]1[O-],≤ 1.56,3.13,≤ 1.56,3.13,3.13,3.13,3.13
CCOC(=O)c1c(C)[n+]([O-])c2ccc(Cl)cc2[n+]1[O-],–,0.78,0.39,–,0.39,0.39,0.39
